Results as given in patent US4073938A, “19,20-Bis-nor-prostenoic acids as hypolipemic compounds” (Istituto Biochimico Italiano di Loredana Lorenzini S.a.s., priority 1974, dated 1978).
Structures can show the parent of a compound that is named as a salt.

Assays:
[1] = Triglycerides and cholesterol in rats on Nath diet, endoperitoneal or by mouth; type: in vivo, male Sprague-Dawley rats; details: 1 week
Method: Treatment with 25 mg/kg/die for 1 week on male Sprague-Dawley rats of 150

[2] = Deepness and rapidity test (untitled table 6); type: in vivo, Male Sprague-Dawley rats; details: 200 mg/kg endoperitoneal; for Rapidity ± E.S.: controls 3.4 ± 0.3; for Deepness (mm ± E.S.): controls 74.9 ± 6.2
Method: | Treatment with the dose of 200 mg/kg endoperitoneal, one or two hours | before sacrifice. Male Sprague-Dawley rats with an average weight of 150 | gr.

[3] = Glycemia test at fast; type: in vivo, Male Sprague-Dawley rats; details: 200 mg/kg endoperitoneal, 2 hours before the test
Method: b. Glycemia test at fast: mg/100 ml blood in toto ± E.S.
Glycemia test at fast (Repetition): mg/100 ml blood in toto ± E.S.
(§1) Treatment with the dose of 200 mg/kg endoperitoneal, 2 hours before the test.
Male Sprague-Dawley rats 150 grs.

[4] = test system: ulcer induced by aspirin; test: Anti-ulcerous activity, ulcer from aspirin (9-hydroxy sodium salt); type: in vivo, Female rats of the Wistar stock; details: for Ulcer scale (x ± Sx): controls 18.67 ± 3.11
Method: (§2) Also in this case the anti-ulcerous activity is tested on an ulcer induced by aspirin and by phenylbutazone. In both cases lesions of various sizes are formed in the glandular section of the stomach.
Female rats of the Wistar stock weighing 150-175 g are used. 24 hours before the start of the test the animals are made to fast, while they are allowed water at will.
Each test group consists of 12 animals. The aspirin is administered orally as a suspension (45 mg/ml of 0.5% carboxymethyl cellulose suspension, 1 ml per animal). The substance in question is administered 10 minutes before the administration of aspirin, and 21/2 hours after, each time in doses of […] of 100 mg/kg × 10 ml of distilled water. The animals are killed 5 hours after the administration of aspirin, the stomachs are extracted and with a stereomicroscope the number and size of the lesions is evaluated.

[5] = LD50 by mouth in the mouse; type: in vivo; details: in vivo, po
Method: (§3) a. LD50 by mouth in the mouse about 3000 mg/kg
(§4) 25 gr of XVI are dissolved in 400 ml of water with NaOH 15% to pH 9, filtered and lyophilized : 24 gr of sodium salt of XVI as a white solid are obtained, humidity (K. Fisher) 2.08%, no U.V. absorption, equivalent weight found 301.7, I.R. bands at 3400, 1765, 1565, 1460, 1420, 1378 cm^-1.
(§5) After 20 hours at 20°, the solvent is evaporated in vacuo, the residue is dissolved in 1300 ml of water treated with 120 ml of acetic acid, extracted with chloroform. After solvent evaporation, 65.1 gr of the compound XVIII are obtained, as an oil, I.R. bands at 3420, 3100, 1710 cm^-1. 35 gr of the compound XVIII are dissolved in 600 ml of water with NaOH to pH 9. The solution is filtered and lyophilized: 35.5 gr of sodium salt of 9-hydroxy-19,20-bis-nor-prostanoic acid are obtained, as white solid, humidity (K.Fisher) 1.73%, no U.V. absorption, equivalent weight found 320, I.R. bands at 3400, 3300, 1565, 1460, 1390 cm^-1, LD50 by mouth in mice about 3000 mg/kg.

[6] = test system: mouse; test: LD50 by mouth in the mouse; type: in vivo
Method: as §3, §4, §5

[7] = Coagulation test (Time of Quick, Time of Howel); type: in vivo, Male Sprague-Dawley rats; details: 200 mg/kg endoperitoneal, 2 hours before
Method: c. Coagulation test: minutes/10 ± E.S.
Coagulation test (Repetition): minutes/100 ± E.S.
as §1
Male Sprague-Dawley rate 150 gr.

[8] = test system: smooth musculature (trachea of guinea-pig, fundal end stomach of rat, uterus of rat, portal vein of rat); test: General pharmacology: prostaglandino-similar activity on smooth muscle preparations; details: 100 μg/ml
Method: The compound C83 has been tested pharmacologically in order to show a probable prostaglandino-similar activity.
The compound C83 has been studied on the above parameters:
1. Trachea of guinea-pig.
2. Strips of fundal end stomach of rat.
5. Cardiovascular effects.
This compound has been tested at the concentration of 100 μg/ml in all preparations above mentioned.

[9] = test system: ulcer induced by phenylbutazone; test: Anti-ulcerous activity, ulcer from phenylbutazone (9-hydroxy sodium salt); type: in vivo, Female rats of the Wistar stock
Method: as §2
Female rats of the Wistar stock weighing 170 ± 180 g are again involved. The animals are held in constant ambient conditions for at least 2 weeks before the start of the test. 24 hours before the start of the test the animals are made to fast, while they are allowed water at will.
Each test group consists of 10 animals. The substance in question is administered a first time 15 minutes before administration of phenylbutazone (200 mg/kg × 1 ml in 0.5% tragacanth gum solution orally), and a second time 21/2 hours after. The doses of the substance in question amount to 2.5, 10, 50, 100, 200 and respectively 400 mg/kg × 2 ml of 0.5% tragacanth gum solution, orally.
5 hours after the administration of phenylbutazone the animals are killed, the stomachs are extracted, fixed and with the aid of a stereomicroscope magnifying 8 times a point count evaluation is carried out. The lesions of the gastric mucosa are expressed in % of the stomach surface.

[10] = Triglyceridemia and cholesterolemia in rats given alcohol 10%; type: in vivo, Male Sprague-Dawley rats; details: 1 week endoperitoneal once daily (CPIB, BBA 200 mg/kg; C83 50 mg/kg)
Method: | Treatment for 1 week CPIB - BBA - 200 mg/kg endoperitoneal; C83 | 50mg/kg endoperitoneal; only one daily administration. | Male Sprague-Dawley rats 150 gr. | Groups of 6 rats.

For `CCCCCCC1CCC(O)C1CCCCCCC(=O)O` (stereo not drawn) [Compound C83, 9-hydroxy-19,20-bis-nor-prostanoic acid sodium salt], the triglycerides ([1]; 25 mg/kg/die by mouth, Nath diet 134.9 ± 9.4, p<0.05 vs Nath diet) was 109.4 ± 6.9, the cholesterol ([1]; 25 mg/kg/die by mouth, Nath diet 333.3 ± 29.9) was 380.2 ± 77.8 and the cholesterol ([1]; 25 mg/kg/die endoperitoneal, controls 72.6 ± 4.3, Nath diet 333.3 ± 29.9, p<0.001 vs Nath diet) was 168.3 ± 26.8. For the same compound, the triglycerides ([1]; 25 mg/kg/die endoperitoneal, controls 96.9 ± 9.4, Nath diet 134.9 ± 9.4, p<0.05 vs Nath diet) was 91.9 ± 16.3, the “Rapidity ± E.S.” value ([2]; 1 hour before sacrifice) was 1.6 ± 0.2 and the “Deepness (mm ± E.S.)” value ([2]; 1 hour before sacrifice) was 29.1 ± 3.6 mm. The “Rapidity ± E.S.” value ([2]; 2 hours before sacrifice) was 3.3 ± 0.7, the “Deepness (mm ± E.S.)” value ([2]; 2 hours before sacrifice) was 67.3 ± 12.6 mm and the “Glycemia at fast (± E.S.)” value ([3]; controls 63.8 ± 4.1, p < 0.001) was 99.3 ± 2.7 mg/100 ml blood in toto. For the same compound, the “Glycemia at fast (Repetition) (± E.S.)” value ([3]; repetition, controls 81.1 ± 3.5, p < 0.01) was 121.4 ± 9.8 mg/100 ml blood in toto, the “Ulcer scale (x ± Sx)” value ([4]; 2 × 10 mg/kg, p<0.001) was 4.83 ± 1.09 and the “Ulcer scale (x ± Sx)” value ([4]; 2 × 100 mg/kg, p<0.05) was 8.92 ± 1.91. The “mitigation of ulcerating effect of aspirin (in words)” value ([4]; both doses) was “considerably mitigates the ulcerating effect of aspirin”, the LD50 [5] was ~3000 mg/kg and the LD50 [6] was “about 3000 mg/kg”. The “Time of Quick (± E.S.)” value ([7]; controls 25.3 ± 0.2, p < 0.001) was 29.0 ± 0.4 minutes/10, the “Time of Howel (± E.S.)” value ([7]; controls 84.5 ± 1.6, p < 0.001) was 98.8 ± 0.9 minutes/10 and the “Time of Quick (Repetition) (± E.S.)” value ([7]; repetition, controls 25.8 ± 0.4, p < 0.001) was 29.3 ± 0.3 minutes/100. For the same compound, the “Time of Howel (Repetition) (± E.S.)” value ([7]; repetition, controls 95.0 ± 1.5, p < 0.001) was 118.8 ± 2.4 minutes/100, the “action on smooth musculature” value [8] was “clear prolonged action on muscle on the different kinds of smooth musculature” and the “correlation between dose and inhibition of ulcer surface area (in words)” value ([9]; FIG. 1) was “highly significant correlation between the dose and the inhibition of the surface area of the ulcer”. For the same compound, the ED50 ([9]; Rattus norvegicus, po, orally, calculated from the regression lines, read-out: DE 50 (inhibition of the surface area of the ulcer)) was 37 mg/kg, the “Surface area of the ulcer in % with respect to surface area of the stomach (x ± Sx)” value (from here on “Surface area of the ulcer in %”) ([9]; orally, 2 × 2.5 mg/kg, controls 0.80 ± 3.26) was 0.57 ± 2.10% and the “Surface area of the ulcer in %” value ([9]; orally, 2 × 10 mg/kg, controls 3.60 ± 3.33) was 2.13 ± 2.22%. For the same compound, the “Surface area of the ulcer in %” value ([9]; orally, 2 × 25 mg/kg, controls 0.80 ± 3.26) was 0.33 ± 1.59%, the “Surface area of the ulcer in %” value ([9]; orally, 2 × 50 mg/kg, controls 3.57 ± 3.59) was 1.30 ± 1.74% and the “Surface area of the ulcer in %” value ([9]; orally, 2 × 100 mg/kg, controls 3.60 ± 3.33) was 1.97 ± 1.44%. For the same compound, the “Surface area of the ulcer in %” value ([9]; orally, 2 × 200 mg/kg, controls 3.57 ± 3.59, p<0.02) was 0.27 ± 0.53%, the Cholesterolemia ([10]; controls 91.5 ± 6.6, alcohol 81.0 ± 4.6) was 56.3 ± 3.9 and the Triglyceridemia ([10]; controls 97.8 ± 5.1, alcohol 169.0 ± 25.0) was 85.2 ± 13.5.
